# Values joined by “and” are separate entries in the source; they are usually repeats but may differ in a detail not shown here. Identical values can stand only once. Like-named read-outs stand apart in the source and are kept apart here.
# How the values were obtained:
# liver of BDL rats = assay: LA-ICP-MS gadolinium imaging of rat liver after Gd-9 MRI; type: in vivo; conditions: BDL rat liver harvested 30 min p.i.
# Method: LA-ICP-MS Gadolinium Imaging Analysis
# Sample preparation. Harvested rat livers after MR imaging were immediately snapfrozen in OCT using liquid nitrogen, sectioned into 10-μm-thick slices, stored in −80° C. One slice was assessed by LA-ICP-MS directly. One adjacent slide was incubated with 0.1 mM Gd-9 at 37° C. for 2 h, followed with 0.2 mM NaBH3CN for 2 h and washed with PBS (3×10 min). Another adjacent slide was incubated with 0.1 mM Gd-9 and 10 mM hydrazine at 37° C. for 2 h, followed with 0.2 mM NaBH3CN for 2 hand washed with PBS (3×10 min). Similar procedures were carried out for human tissues. Slides were incubated with 0.1 mM Gd-9 at 37° C. for 2h, followed with 0.2 mM NaBH3CN for 2 h and washed with PBS (3×10 min).
# Gadolinium mapping. Elemental images were collected from sections of liver tissue via laser ablation inductively coupled plasma mass spectrometry at the Biomedical National Elemental Imaging Resource (BNEIR). The instrumentation used was a New Wave Research 213 nm laser ablation system with a 10 cm^2 sample chamber, interfaced with an Agilent 7900 ICP-MS system. Samples were ablated in no-gas mode, with helium as a carrier gas at a flow rate of 600 L min^−1. […] Elemental imaging data was quantified using metal-doped gelatin standards prepared at BNEIR and National Institute of Standards and Technology (NIST) certified references material 1515 (apple leaves). […]
# liver of CDAHFD mice = assay: MR imaging of liver in non-alcoholic steatohepatitis (CDAHFD) model; type: in vivo, mouse; conditions: 20 min post injection
# Text: Non-Alcoholic Steatohepatitis Liver Fibrosis Model:
# A total of 40 C57BL/6 mice were used and randomized to each study group. To induce NASH, 6-week old, male C57BL/6 mice (Charles River Labs, Wilmington, MA) were fed a choline deficient, high fat diet (CDAHFD) consisting of 60 kcal % fat and 0.1% methionine (A06071302; Research Diets, New Brunswick, NJ) by weight. No animals were excluded from the study.
# Three groups of mice were studied:
# Group A, mice were fed CDAHFD for 2 (n=6), 6 (n=6), 10 (n=6) weeks and imaged with probe Gd-9.
# Group B, mice were fed CDAHFD for 10 weeks followed by normal chow for 1 (n=6) or 4 weeks (n=6) and imaged with probe Gd-9.
# Group C, mice were fed normal chow for 2, 6, 10, 11 or 14 weeks (n=10) and imaged with probe Gd-9.
# Animals were anesthetized with isoflurane (1-2%) and placed in a specially designed cradle with body temperature maintained at 37° C. The inhaled isoflurane level was adjusted to maintain a respiration rate of 60±5 breaths per minute. The tail vein was cannulated for intravenous (i.v.) delivery of the contrast agent while the animal was positioned in the scanner. Imaging was performed at 4.7 T using a small bore animal scanner with a custom-built volume coil. Mice were imaged with a dose of 100 μmol/kg from 30 mM stock solution of Gd or Mn complex.
# Following the imaging session, animals were sacrificed (75 min p.i.) and liver tissue was subjected to histopathologic analysis.
# For liver imaging analysis, a region of interest (ROI) was manually traced encompassing the liver parenchyma while avoiding major blood vessels. A second ROI was placed on the dorsal muscle visible in the same image slice to quantify the signal intensity in the muscle for comparison. Seven ROIs were placed in the field of view without any tissue (air) to measure the variation in background signal. More than 20 axial slices per mouse across the entire liver were analyzed in this fashion. […] Contrast to noise ratio (CNR) was calculated by measuring the difference in signal intensity (SI) between liver and muscle and normalizing to the standard deviation of the signal in the air, eq 21. ΔCNR was calculated by subtracting CNR measured prior to probe injection (CNRPre) from CNR measured after injection (CNRPost), eq 22.
# Mice were fed with CDAHFD or standard chow for 2, 6, or 10 weeks; two additional groups of mice received CDAHFD for 10 weeks and then standard chow for 1 or 4 weeks (FIG. 70; 2 wk, 6 wk, and 10 wk bars correspond to CDAHFD; 1 wk and 4 wk bars correspond to standard chow; “MRI” indicates MRI with Gd-9).
# [1] = system: myocardium of SAMP8/SAMR1 mice with TAC; conditions: 20 min post injection
# Text: Combined Heart and Lung Fibrosis Model:
# Left ventricular dysfunction with pulmonary hypertension was induced by left thoracotomy transverse aortic constriction surgery (TAC) in 6-month-old senescence-accelerated-prone/resistant mice (SAMP8/SAMR1), which is a well-established model of pressure overload-induced cardiac hypertrophy that can induce heart and lung fibrosis. The transverse aorta was encircled with 7-0 nylon suture and tied tightly around a pre-sterilized, blunt-end of a 27-gauge needle. After securing the knot, the needle was removed, and aortic flow resumed. Another two groups of SAMP8 and SAMR1 mice received sham surgery as control. 3-weeks post-surgery, mice were anesthetized with isoflurane (1.5%) and imaged at a 4.7 Tesla Bruker MRI scanner.
# For combined heart and lung imaging, a series of baseline images (2D T1 weighted FLASH for heart and 3D-UTE for lung) were first acquired. 2D T1 weighted FLASH: repetition time/echo time=18.24/3.54 ms; flip angle, 50°; field of view, 36×36 mm^2; matrix size, 138×138 mm^2; slice thickness, 1 mm; acquisition time, 3 minutes 50 seconds. 3D-UTE: repetition time/echo time=4/0.01225 ms; flip angle, 16°; field of view, 32×32 mm^2; matrix size, 128×128 mm^2; slice thickness, 0.25 mm; acquisition time, 3 minutes 36 seconds. Then a bolus of Gd-9 complex was administered i.v. and imaging performed for a period of 40 min p.i. with the repetition acquisition of 2D T1 weighted FLASH and 3D-UTE sequences. Following the imaging session, animals were sacrificed and heart and lung tissue was subjected to histopathologic analysis.
# For heart imaging analysis, FLASH image pre-contrast and immediately post-contrast were used to define regions of interest (ROIs) in the myocardium that excluded blood vessels. The percentage of signal intensity change (% SI) was calculated by comparing the SI measured after probe injection to SI measured prior to probe injection.
smiles,measurement,setting,value
"NN1CCN(C(=O)CCC(C(=O)[O-])N2CCN(CC(=O)[O-])CCN(CC(=O)[O-])CCN(C(CCC(=O)N3CCN(N)CC3)C(=O)[O-])CC2)CC1.[Gd+3] (stereo not drawn) [Gd-9, cis-1,4-Gd-(CHyd)2]",Gd accumulation in fibrotic septa (LA-ICP-MS),liver of BDL rats,~50 ppm
same,ΔCNR of liver (row head ACNR),liver of CDAHFD mice; 2 wk CDAHFD,1.3±0.4 and 1.3 ± 0.3
same,ΔCNR of liver (row head ACNR),liver of CDAHFD mice; 6 wk CDAHFD,2.1 ± 0.4
same,ΔCNR of liver (row head ACNR),liver of CDAHFD mice; 10 wk CDAHFD then 1 wk Withdrawal,0.9±0.3
same,ΔCNR of liver (row head ACNR),liver of CDAHFD mice; 10 wk CDAHFD then 4 wk Withdrawal,0.3±0.2
same,ΔCNR of liver (row head ACNR),liver of CDAHFD mice; 10 wk CDAHFD,2.5±0.5
same,ΔCNR of liver (row head ACNR),liver of CDAHFD mice; Control (standard chow),0.1±0.4
same,% SI change of myocardium,[1]; SAMP1-Sham,7.8 ± 4.7%
same,% SI change of myocardium,[1]; SAMP1-TAC,21.5 ± 8.4%
same,% SI change of myocardium,[1]; SAMP8-Sham,8.2 ± 5.3%
same,% SI change of myocardium,[1]; SAMP8-TAC,22 ± 7.9%
